What is called pEC50 is the EC50 on a negative log10 scale, so that one unit is a factor of ten.

This passage reports EC50 and Her2 inhibition results from PubChem BioAssay AID742 (SRMLSC, 2007).

Each structure is given as a SMILES string. pEC50: −log10 of the molar value. The source made the active and inactive calls. The rule behind the calls is not given here.

The test system of assay [1] is human cells, Her2 expression AlphaScreen; CTG viability. Nature of the assay: inhibitors of Her2 kinase expression, dose response, cell-based, AlphaScreen, CellTiter-Glo viability (AID 742). Particulars: viability, CellTiter-Glo. (In general: Bead proximity is the source of the signal in Alpha formats.)
Test in assay [2]: as above
The note with it: human cells, Her2 expression AlphaScreen; CTG viability; at 9.62 µM (top of the series).

In assay [1], `CCN1C(=O)CC(C(=O)Nc2ccc(F)cc2)SC1=Nc1ccc2c(c1)OCO2` (stereo unspecified) had a pEC50 of under 5.02. Moreover, the Her2 inhibition in assay [2] was -33.1% (inactive).

In the case of `O=C1C(C2=C(O)c3ccccc3C2=O)=Nc2ccccc21`, the pEC50 in assay [1] was over 7.62. In assay [2], the Her2 inhibition was -1.36% (inactive).

In the case of `Clc1ccc(COC(Cn2ccnc2)c2ccc(Cl)cc2Cl)cc1` (stereo unspecified), in assay [1], the pEC50 was under 5.02. The Her2 inhibition in assay [2] is 1.73% (inactive).

Molecule `COC(=O)c1[nH]c2ccc(Br)cc2c1NC(=O)C(C)N1CCN(C2CCCCC2)CC1` (stereo unspecified) had a pEC50 in assay [1] of under 5.02. For the same molecule, the Her2 inhibition in assay [2] was -20.7% (inactive).

Regarding `O=C(CCn1[nH]c(=O)c2ccccc2c1=O)OC1CCCCC1`, in assay [1], the pEC50 is under 5.02. Also, the Her2 inhibition in assay [2] was -7.62% (inactive).

`COc1ccccc1-c1cc(C(F)(F)F)nc(S(=O)(=O)CCCC(=O)N2CCCCC2C)n1` (stereo unspecified) had a pEC50 in assay [1] of under 5.02. Also, the Her2 inhibition in assay [2] was -11.6% (inactive).

`O=C(NCC(=O)N(CCc1ccccc1)C(C(=O)NC1CCCC1)c1cccnc1)c1ccco1` (stereo unspecified) had a pEC50 in assay [1] of under 5.02. Besides, the Her2 inhibition in assay [2] is -12.6% (inactive).

In assay [1], `O=C(Nc1nccs1)C1C2/C=C\CCCCC21` (stereo unspecified) showed a pEC50 of under 5.02. Moreover, the Her2 inhibition in assay [2] is -0.67% (inactive).

Take `CS(=O)(=O)c1ccc(Cl)c(NC(=O)COC(=O)CNC(=O)c2ccc(Br)o2)c1`: the pEC50 in assay [1] was under 5.02. The Her2 inhibition in assay [2] was 5.14% (inactive).

`COc1ccccc1-n1nnnc1S(=O)(=O)Cc1ccc(Cl)cc1` showed a pEC50 in assay [1] of under 5.02. For the same molecule, the Her2 inhibition in assay [2] was 23.5% (inactive).

Regarding `COc1ccccc1-n1c(SCC(=O)NC(C)(C)C)nc(O)cc1=O`, in assay [1], the negative logarithm of the EC50 (pEC50) was under 5.02. In addition, the Her2 inhibition in assay [2] was 8.19% (inactive).

As to `CCc1nc(N)c(C#N)c(-c2cccnc2)c1C`, in assay [1], the pEC50 was under 5.02. Further, the Her2 inhibition in assay [2] was 2.53% (inactive).

Molecule `O=C1CC(Sc2nnc(-c3ccccc3O)o2)C(=O)N1c1ccccc1` (stereo unspecified) gave a pEC50 in assay [1] of under 5.02. Further, the Her2 inhibition in assay [2] is -8.42% (inactive).

In assay [1], `Cc1nc2cc(S(=O)(=O)C(F)(F)F)ccc2s1` had a pEC50 of under 5.02. In addition, the Her2 inhibition in assay [2] is -23.9% (inactive).

In the case of `CN1CC2=Cc3ccccc3OC23Oc2ccccc2C=C3C1`, the pEC50 in assay [1] was under 5.02. In assay [2], the Her2 inhibition is -10.3% (inactive).

Regarding `CSCC[C@H](NC(=O)NCc1ccc(F)cc1)C(=O)O`, the pEC50 in assay [1] is under 5.02. For the same molecule, the Her2 inhibition in assay [2] was -11.5% (inactive).

For `CC(C)(C)OC(=O)NCCc1nnc(S(=O)(=O)Cc2ccc(Cl)cc2Cl)o1`, in assay [1], the pEC50 is under 5.02. The Her2 inhibition in assay [2] was -15.5% (inactive).

In turn, `CCOc1cc(C(=O)NCCOC)ccc1OC` had a pEC50 in assay [1] of under 5.02. Moreover, in assay [2], the Her2 inhibition was -7.59% (inactive).

As to `C/C(=N\O)C(=O)C(CN1CCCCC1)CN1CCCCC1`, the negative-log EC50 (pEC50) in assay [1] is under 5.02. In assay [2], the Her2 inhibition is 15.2% (inactive).

On to `N#CCCS(=O)(=O)c1nnnn1-c1ccccc1`, for which the negative logarithm of the EC50 (pEC50) in assay [1] is under 5.02. In assay [2], the Her2 inhibition was 3.51% (inactive).

In turn, `Cc1cccc(Nc2nc(-c3ccccn3)cs2)n1` showed a pEC50 in assay [1] of under 5.02. The Her2 inhibition in assay [2] is 0.46% (inactive).

In turn, `Cn1cnc2c1c(=O)[nH]c(=O)n2C` had a pEC50 in assay [1] of under 5.02. For the same molecule, in assay [2], the Her2 inhibition is -20.9% (inactive).

With `O=S1(=O)Nc2c(ccc3cccnc23)-c2ccccc21`, the pEC50 in assay [1] is under 5.02. Further, the Her2 inhibition in assay [2] was 12.6% (inactive).

`CC(C)NCC(O)Cn1c2c(c3ccccc31)CCc1c-2cnn1-c1ccccc1` (stereo unspecified): the pEC50 in assay [1] is under 5.02. Also, in assay [2], the Her2 inhibition is 11.7% (inactive).

Consider `Cc1cc2nnc(SC(C)C#N)n2c2ccccc12` (stereo unspecified), for which, in assay [1], the pEC50 is under 5.02. Further, in assay [2], the Her2 inhibition is -10.1% (inactive).

On to `Cc1ccc(-n2nc(C)c3c2OC(N)=C(C#N)C3c2ccc(F)cc2)cc1` (stereo unspecified), for which the negative-log EC50 (pEC50) in assay [1] is under 5.02. For the same molecule, the Her2 inhibition in assay [2] is -1.17% (inactive).

`CCC(C)NC(=O)c1cnn2c1NC(c1ccc3c(c1)OCO3)CC2C(F)(F)F` (stereo unspecified) gave a pEC50 in assay [1] of under 5.02. Moreover, in assay [2], the Her2 inhibition was -0.33% (inactive).

In turn, `OC(CN1CCN(c2cccc(C(F)(F)F)c2)CC1)c1c[nH]c2ccccc12` (stereo unspecified) gave a pEC50 in assay [1] of under 5.02. Besides, the Her2 inhibition in assay [2] was 4.59% (inactive).

As to `Cn1c(SC2=CS(=O)(=O)c3ccccc32)nc2ccccc21`, the pEC50 in assay [1] is under 5.02. Further, in assay [2], the Her2 inhibition was 44.8% (inactive).

`Cc1ccc(C2CC(=O)N3CN(c4ccc(Br)cc4)CSC3=C2C#N)o1` (stereo unspecified) had a pEC50 in assay [1] of under 5.02. Moreover, the Her2 inhibition in assay [2] is 16% (inactive).

Regarding `Cc1ccccc1-n1nc2c(c1NC(=O)c1cc3ccccc3oc1=O)CS(=O)(=O)C2`, the pEC50 in assay [1] is under 5.02. Besides, in assay [2], the Her2 inhibition was -11.6% (inactive).

For `CC(C)c1nnc(NC(=O)CCS(=O)(=O)c2nc(-c3cccs3)cc(C(F)(F)F)n2)s1`, the pEC50 in assay [1] was under 5.02. For the same molecule, the Her2 inhibition in assay [2] was 16.2% (inactive).

For the molecule `N#CC1=C2SCN(c3ccccc3)CN2C(=O)CC1c1cccs1` (stereo unspecified), in assay [1], the pEC50 is under 5.02. Further, the Her2 inhibition in assay [2] is -27.6% (inactive).
